The source of these data is article PMC7291858, “An Enhanced Variant Designed From DLP4 Cationic Peptide Against Staphylococcus aureus CVCC 546” (Frontiers in Microbiology, 2020).

One experiment deals with S. aureus ATCC 43300. In kind it is cell-based, Staphylococcus aureus. To be noted: microtiter, serial 2-fold dilutions, 37°C, 16∼20 h, triplicate; – = no activity. As to the method: (§1) The minimal inhibitory concentration (MIC) was evaluated by a microtiter plate assay ([Wiegand et al., 2008]). Serial 2-fold dilutions of test peptides were placed into a 96-well plate containing identical bacterial inoculum and incubated at 37°C for 16∼20 h. Vancomycin was used as antibiotic control. The MIC value was defined as the lowest peptide concentration where no visible growth occurred. All tests were made in triplicate.

Experiment [1] has as its system Staphylococcus aureus CVCC 546. Description: microbe, parasite or virus in culture. It is filed as cell-based. The following applies: Table 1; – = no activity. As to the method: as §1

Peptide text beside a SMILES is read from it.

In the case of `CC(C)C[C@@H]1NC(=O)[C@@H]2CSSC[C@@H](C(=O)N[C@@H](CCCNC(=N)N)C(=O)N[C@@H](CCCCN)C(=O)O)NC(=O)[C@H](CC(N)=O)NC(=O)[C@@H]3CSSC[C@H](NC(=O)[C@H](C)NC(=O)[C@H](C)NC(=O)[C@H](Cc4c[nH]cn4)NC(=O)CNC(=O)[C@H](C(C)C)NC(=O)[C@H](CCCCN)NC(=O)[C@H](Cc4ccccc4)NC(=O)[C@@H]4CCCN4C(=O)[C@H](CO)NC(=O)[C@H](CC(C)C)NC(=O)[C@H](CC(C)C)NC(=O)[C@H](CC(=O)O)NC(=O)[C@@H](NC(=O)[C@@H](NC(=O)[C@H](C)N)[C@@H](C)O)CSSC[C@H](NC(=O)[C@H](Cc4c[nH]c5ccccc45)NC(=O)CNC(=O)CNC(=O)[C@H](CCCNC(=N)N)NC(=O)[C@H](CCCCN)NC(=O)CNC(=O)[C@H](CCCNC(=N)N)NC(=O)[C@H](C)NC1=O)C(=O)N[C@@H](CC(=O)O)C(=O)N[C@@H](CCCCN)C(=O)N[C@@H](CCCNC(=N)N)C(=O)N[C@@H](C)C(=O)N[C@@H](C(C)C)C(=O)N3)C(=O)N[C@@H](C)C(=O)N[C@@H](C)C(=O)N[C@@H](Cc1c[nH]cn1)C(=O)N2` [ID29] (HELM PEPTIDE1{A.T.C.D.L.L.S.P.F.K.V.G.H.A.A.C.A.A.H.C.L.A.R.G.K.R.G.G.W.C.D.K.R.A.V.C.N.C.R.K}$PEPTIDE1,PEPTIDE1,3:R3-30:R3|PEPTIDE1,PEPTIDE1,16:R3-36:R3|PEPTIDE1,PEPTIDE1,20:R3-38:R3$$$V2.0; N-terminus and C-terminus assumed; bridges inferred), the “A1 (MIC against S. aureus ATCC 43300)” value with S. aureus ATCC 43300 turned out to be 64 µg/mL. This compound also returned an MIC in experiment [1] of 128.
In the same order, the values of `CC[C@H](C)[C@@H]1NC(=O)[C@@H]2CSSC[C@@H](C(=O)N[C@@H](CCCNC(=N)N)C(=O)N[C@@H](CCCCN)C(=O)O)NC(=O)[C@H](CC(N)=O)NC(=O)[C@@H]3CSSC[C@H](NC(=O)[C@H](C)NC(=O)[C@H](C)NC(=O)[C@H](Cc4c[nH]cn4)NC(=O)CNC(=O)[C@H](C(C)C)NC(=O)[C@H](CCCCN)NC(=O)[C@H](Cc4ccccc4)NC(=O)[C@@H]4CCCN4C(=O)[C@H]([C@@H](C)O)NC(=O)[C@H](CC(C)C)NC(=O)[C@H](CC(C)C)NC(=O)[C@H](CC(=O)O)NC(=O)[C@@H](NC(=O)[C@@H](NC(=O)[C@H](C)N)[C@@H](C)O)CSSC[C@H](NC(=O)[C@H](Cc4c[nH]c5ccccc45)NC(=O)CNC(=O)CNC(=O)[C@H](CCCNC(=N)N)NC(=O)[C@H](CCCCN)NC(=O)CNC(=O)[C@H](CCCNC(=N)N)NC(=O)[C@H](C)NC1=O)C(=O)N[C@@H](CC(=O)O)C(=O)N[C@@H](CCCCN)C(=O)N[C@@H](CCCNC(=N)N)C(=O)N[C@@H](C)C(=O)N[C@@H](C(C)C)C(=O)N3)C(=O)N[C@@H](C)C(=O)N[C@@H](C)C(=O)N[C@@H](Cc1c[nH]cn1)C(=O)N2` [ID6] (HELM PEPTIDE1{A.T.C.D.L.L.T.P.F.K.V.G.H.A.A.C.A.A.H.C.I.A.R.G.K.R.G.G.W.C.D.K.R.A.V.C.N.C.R.K}$PEPTIDE1,PEPTIDE1,3:R3-30:R3|PEPTIDE1,PEPTIDE1,16:R3-36:R3|PEPTIDE1,PEPTIDE1,20:R3-38:R3$$$V2.0; N-terminus and C-terminus assumed; bridges inferred) are 8 µg/mL and 16.
